Test results reported in publication PMC11433764, “A Novel Compound from the Phenylsulfonylpiperazine Class: Evaluation of In Vitro Activity on Luminal Breast Cancer Cells” (Molecules, 2024).
“Also recorded” adds a separate entry of the source.

Experiments:
Assay type in all cases: cell-based
[1] = system: MCF-10A; assay: MTT cell viability, non-tumor cell line MCF-10A; conditions: Homo sapiens, MCF-10A, 48 h, 1.25–160 μM, read-out: IC50 MCF-10A
Protocol: (§1) Four different breast cells lines were used in this study: MCF-10A (non-tumorigenic), MCF7 (ER+ BC), MDA-MB453 (HER2+ BC) and MDA-MB231 (TNBC). All lineages were obtained from the American Type Culture Collection (ATCC; Manassas, VA, USA) and maintained at a temperature of 37 °C according to the supplier’s recommendations. Only MDA-MB231 cells were not kept in an atmosphere of 5% CO2. MCF-10A was grown in Dulbecco’s Modified Eagle’s Medium (DMEM F12, Gibco, ThermoFisher Scientific, Waltham, MA, USA) supplemented with 20 ng/mL epidermal growth factor (Gibco, ThermoFisher Scientific, Waltham, MA, USA), 0.5 μg/mL hydrocortisone (Sigma-Aldrich, Sigma-Aldrich, St. Louis, MO, USA) and 10 μg/mL insulin (Gibco, ThermoFisher Scientific, Waltham, MA, USA). MCF7 was cultivated in Roswell Park Memorial Institute Medium (RPMI-1640, Gibco, ThermoFisher Scientific, Waltham, MA, USA), MDA-MB453 in IMDM and MDA-MB231 in Leibovitz’s medium (L-15, Gibco, ThermoFisher Scientific, Waltham, MA, USA). All media were supplemented with 10% fetal bovine serum (FBS, Gibco, ThermoFisher Scientific, Waltham, MA, USA) and 50 µg/mL of gentamicin (Cultilab, Campinas, SP, Brazil). The cells were confirmed to be free of mycoplasma and passaged using a 0.25% trypsin-EDTA solution when confluency reached 80–90%.
(§2) Cell viability was determined by spectrophotometric quantification of MTT (3-[4,5-dimethyl-thiazol-2-yl]-2,5-diphenyltetrazolium bromide—Invitrogen. Waltham, MA, USA) reduction to formazan crystals. Cells were seeded at the density of 1 × 10^4 cells/well (MCF-10A, MDA-MB453), 1.5 × 10^4 cells/well (MDA-MB231) and 3 × 10^3 cells/well (MCF7) in 96-well culture dishes and incubated with different concentrations of the compounds (1.25, 2.5, 5, 10, 20, 40, 80 and 160 µM) for 48 h. The medium was than replaced by MTT solution (0.5 mg/mL) and plates were kept at 37 °C for 4 h. After the aspiration of the media, the formazan crystals were diluted with 100 μL of dimethyl-sulfoxide (DMSO)/well and the absorbance at 570 nm was measured using a spectrophotometer (Thermo Plate TP-Reader, Waltham, MA, USA). Cytotoxicity was calculated using the following formula: Cytotoxicity (%) = [absorbance of cells treated with the compounds/absorbance of cells treated with DMSO) × 100]. The IC50 was determined for each compound and was defined as the concentration required to inhibit 50% of cell growth, compared to the control sample (cells treated with DMSO 0.05%).
(§3) Data were presented as the mean ± standard deviation (SD) and analyzed using GraphPad Prism 9.0 software (GraphPad Software Inc., La Jolla, CA, USA). All data were assayed in triplicate. Statistical analysis was performed using one-way ANOVA, Tukey´s HSD post hoc test and Student’s t-test. The IC50 was calculated using non-linear regression and the selectivity index (SI) was calculated by the ratio between the IC50 values corresponding to the non-tumor cell lineage (MCF-10A) and the IC50 values corresponding to the BC cell lines. Statistical significance was accepted at p values < 0.05.

[2] = system: MDA-MB-231; assay: MTT cell viability, MDA-MB-231
Protocol: as §1, §2, §3

[3] = system: MDA-MB-453; assay: MTT cell viability, MDA-MB-453
Protocol: as §1, §2, §3

[4] = system: tumor cells MCF7, MDA-MB-453 and MDA-MB-231; assay: MTT cell viability, tumor cells (stated collectively); conditions: 48 h, MTT; tumor cells stated collectively
Protocol: as §1, §2, §3

[5] = system: MCF7; assay: Clonogenic (colony formation) assay; conditions: MCF7, 9.00 µM (highest concentration), 48 h
Protocol: MCF7 cells were seeded at a density of 500 cells per well in 6-well culture. […] The medium was removed and, after 12 days, cells were washed 3 times with 1 × Phosphate-buffered saline (PBS), fixed with formaldehyde (4% v/v) and stained with crystal violet solution (0.5% v/v). Plates were scanned using L-Pix (Loccus Biotecnologia, Cotia, SP, Brazil) to obtain the images, incubated with 300 µL of acetic acid 33% v/v, and 100 µL of this solution was transferred to 96-well plates to evaluate the absorbance at 570 nm in a microplate reader (Thermo Plate TP-Reader, ThermoFisher). The number of colonies per well was calculated in relation to the untreated cells (considered as 100% of colony formation).

[6] = system: ENTPD1; assay: qPCR, ENTPD1 expression in MCF7; conditions: vs untreated cells
Protocol: (§4) Total RNA was extracted using Trizol reagent (Invitrogen), according to the manufacturer’s protocol. The quality of extracted RNA was verified by the spectrophotometric readings at 260 and 280 nm (Nanodrop 1000-ThermoFisher), and the first strand of cDNA was synthesized from 1 µg of total RNA via reverse transcription using GoScript™ Reverse Transcription Mix (Promega, Madison, WI, EUA). qPCR analysis was performed using 5.0 μL of Power SYBR Green PCR Master Mix (Applied Biosystems, Carlsbad, CA, USA) and run on a StepOnePlus Systems (Applied Biosystems, Carlsbad, CA, USA) device with the following cycling parameters: 40 cycles of 95 °C for 10 s and 60 °C for 30 s. The comparative Cq was used to find the relative expression of CDH1 (E-caderina), ENTPD1 (ectonucleoside triphosphate diphosphohydrolase 1), ENTPD2 (ectonucleoside triphosphate diphosphohydrolase 2), ENTPD3 (ectonucleoside triphosphate diphosphohydrolase 3), ENTPD5 ([…]) and KRT10 (keratin 10) genes, after relative standard curve optimization. β-2-microglobulin (β2M) was used as a reference gene. The primer sequences are described in Table 3.

[7] = system: KRT10; assay: qPCR, KRT10 expression in MCF7; conditions: vs untreated cells
Protocol: as §4

IC50 [4]: < 50 µM
Structure (SMILES): O=C(c1ccc(-n2cnnn2)cc1)N1CCN(S(=O)(=O)c2ccc(Cl)cc2)CC1 [Compound 3, (4-(1H-tetrazol-1-yl)phenyl)(4-((4-chlorophenyl)sulfonyl)piperazin-1-yl)methanone]
IC50 [1]: > 160 µM
IC50 ([2]; Homo sapiens, MDA-MB-231, 48 h, MTT, 1.25–160 μM, read-out: IC50 MDA-MB-231): 83 µM
SI MDA-MB-231 ([2]; IC50 MCF10A / IC50 MDA-MB-231): >1.93
IC50 ([3]; Homo sapiens, MDA-MB-453, 48 h, MTT, 1.25–160 μM, read-out: IC50 MDA-MB-453): 80 µM
SI MDA-MB-453 ([3]; IC50 MCF10A / IC50 MDA-MB-453): >2.00
Colony formation [5]: significantly reduced colony formation; also recorded: Colony formation was inhibited
Fold Change ENTPD1 mRNA ([6]; MCF7, 1.125 µM): 1.102
Fold Change ENTPD1 mRNA ([6]; MCF7, 2.25 µM): 1.331
Fold Change ENTPD1 mRNA ([6]; MCF7, 4.5 µM): 1.006
Fold Change KRT10 mRNA ([7]; MCF7, 1.125 µM): 1.309
Fold Change KRT10 mRNA ([7]; MCF7, 2.25 µM): 1.913
Fold Change KRT10 mRNA ([7]; MCF7, 4.5 µM): 1.383
